Experimental data reported in ChEMBL document CHEMBL1629619, “qnrD, a novel gene conferring transferable quinolone resistance in Salmonella enterica serovar Kentucky and Bovismorbificans strains of human origin” (2009).
≈ marks a conversion by molar mass, not a printed value. Calls of active or inactive are those of the source. The rule behind the calls is not given here.

Columns and labels:
[1] = Antimicrobial activity against Salmonella enterica serovar Kentucky by broth microdilution assay
Salmonella enterica [2] = assay: Antimicrobial activity against Salmonella enterica HN-GSS2006-142 by broth microdilution assay; format: functional, organism-based
Salmonella enterica [3] = assay: Antimicrobial activity against Salmonella enterica HN-GSS2007-0.033 by broth microdilution assay; format: functional, organism-based
Salmonella enterica [4] = assay: Antimicrobial activity against Salmonella enterica HN-GSS2007-0.056 by broth microdilution assay; format: functional, organism-based
Salmonella enterica [5] = assay: Antimicrobial activity against Salmonella enterica HN-GSS-2007-057 by broth microdilution assay; format: functional, organism-based
Escherichia coli [6] = assay: Antimicrobial activity against Escherichia coli DH10B by broth microdilution assay; format: functional; conditions: K-12 DH10B
Escherichia coli [7] = assay: Antimicrobial activity against Escherichia coli DH10B harboring pBR322 by broth microdilution assay; format: functional; conditions: K-12 DH10B
Escherichia coli [8] = assay: Antimicrobial activity against Escherichia coli DH10B harboring pBR322 with Salmonella enterica HN-GSS-2007-057 qnrA1 gene by broth microdilution assay; format: functional; conditions: K-12 DH10B
Escherichia coli [9] = assay: Antimicrobial activity against Escherichia coli DH10B harboring pBR322 with Salmonella enterica HN-GSS-2007-057 qnrS1 gene by broth microdilution assay; format: functional; conditions: K-12 DH10B
Escherichia coli [10] = assay: Antimicrobial activity against Escherichia coli DH10B harboring pBR322 with Salmonella enterica HN-GSS-2007-057 qnrD gene by broth microdilution assay; format: functional; conditions: K-12 DH10B
Escherichia coli [11] = assay: Antimicrobial activity against Escherichia coli DH10B harboring p2007057 by broth microdilution assay; format: functional; conditions: K-12 DH10B
[12] = Antimicrobial activity against Salmonella enterica serovar Bovismorbificans by broth microdilution assay; format: functional, Salmonella enterica subsp. enterica serovar Bovismorbificans

Row | Compound | MIC [1] [µg/mL] | Activity (Salmonella enterica [2]) | Activity (Salmonella enterica [3]) | Activity (Salmonella enterica [4]) | Activity (Salmonella enterica [5]) | MIC (Escherichia coli [6]) [µg/mL] | MIC (Escherichia coli [7]) [µg/mL] | MIC (Escherichia coli [8]) [µg/mL] | MIC (Escherichia coli [9]) [µg/mL] | MIC (Escherichia coli [10]) [µg/mL] | MIC (Escherichia coli [11]) [µg/mL] | MIC [12] [µg/mL]
1 | O=C(O)c1cn(C2CC2)c2cc(N3CCNCC3)c(F)cc2c1=O [CIPROFLOXACIN] | 0.125 (≈ 0.377 µM) |  |  |  |  |  |  |  |  |  |  | 
2 | CCn1cc(C(=O)O)c(=O)c2cc(F)c(N3CCNCC3)cc21 [NORFLOXACIN] |  | Active | Active | Active | Active | 0.015 (≈ 0.047 µM) | 0.015 (≈ 0.047 µM) | 0.25 (≈ 0.783 µM) | 0.5 (≈ 1.57 µM) | 0.06 (≈ 0.188 µM) | 0.125 (≈ 0.391 µM) | 
3 | CCn1cc(C(=O)O)c(=O)c2ccc(C)nc21 [NALIDIXIC ACID] |  |  |  |  |  | 2 (≈ 8.61 µM) | 2 (≈ 8.61 µM) | 8 (≈ 34.4 µM) | 8 (≈ 34.4 µM) | 4 (≈ 17.2 µM) | 8 (≈ 34.4 µM) | 8 (≈ 34.4 µM)
4 | CC1COc2c(N3CCN(C)CC3)c(F)cc3c(=O)c(C(=O)O)cn1c23 (stereo unspecified) [OFLOXACIN] |  | Active | Active | Active | Active |  | 0.032 (≈ 0.0886 µM) | 0.25 (≈ 0.692 µM) |  | 0.125 (≈ 0.346 µM) | 0.25 (≈ 0.692 µM) | 
